Measurements as given in US5098613A, “Anti-inflammatory agents” (Eli Lilly and Company, priority 1990, dated 1992).

Key:
[1] = biological target: T1, leukotriene B4 specific receptor on the membrane of human neutrophils (Homo sapiens, UniProt Q15722); assay: Inhibition of Binding of ^3 H-LTB4 to Peripheral Human Neutrophils; details: 4° C., 10 minutes; for inhibition at 10 µM: drug concentration 10^-5 M, read-out: LTB4 Binding Inhibition; for inhibition at 1 µM: drug concentration 10^-6 M
T1 construct: incubating neutrophils (1×10^7 cells) with 0.1-0.2 nM ^3 H-LTB4; endogenous in cells; host or cells: human peripheral blood neutrophils (buffy coats of two blood donors)
In short: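 Freshly isolated human donor neutrophils (1×10^7 cells) in HBSS/0.1% ovalbumin pH 7.3 were incubated with 0.1-0.2 nM ^3H-LTB4 and compound at 1×10^-5 or 1×10^-6 M for 10 min at 4 °C. Bound ligand was separated by centrifugation through phthalate oil and counted, then corrected for nonspecific binding and compared with compound-free control.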

[2] = system: Arachidonic Acid Induced Ear Edema; assay: Arachidonic Acid-Induced Ear Edema Assay; format: in vivo, Female BALB/C mice; details: Mus musculus, 1 h, topical, one hour prior to arachidonic acid, read-out: Percent Inhibition of Ear Swelling
Method: Female BALB/C mice (Charles River; 18-20 rams) were divided into groups of five. Arachidonic acid was dissolved in ethanol at a concentration of 200 mg/ml. Each mouse received 2 mg/ear of arachidonic acid on the inner surface of the right ear. This dose of phlogistic was applied by an automatic pipette in 10 mcl volumes. The left ear (control) received ethanol. Drugs were applied topically in an ethanol-based gel to the entire outer surface of both ears one hour prior to arachidonic acid application. Edema was measured by the increase in ear weight. An hour after arachidonic acid solution or vehicle was applied, an ear sample of 7 mm in diameter was obtained from both ears. Ear edema was calculated by subtracting the […], dividing by the weight of the left/Control ear, and averaging the results for each group of mice according to compound and concentration.

[3] = system: shock after E. coli LPS and galactosamine (GALN) challenge; assay: Mouse Endotoxin Shock Assay; format: in vivo, C57BL/6 male mice; details: LPS/GALN s.c. challenge, results 48 hours after challenge, Reed Muench Method
Method: Compounds were given to 18-20 g C57BL/6 male mice using various regimens depending upon mode of administration. Control animals received corresponding vehicles only. The mice were then challenged with 0.2 ml of chromatographically purified 0111:B4 E. coli LPS and galactosamine hydrochloride (GALN) given subcutaneously (back of the neck). GALN was given at an approximate dose of 500 mg/kg whereas the LPS dose ranged between 0.3-1.2 μg/mouse (15-60 μg/k9). Control animals generally die of shock 7-15 hours after administration of LPS/GALN although a small number (0-5%) may die 24-48 hours after such administration. Calculation of the EDso for each compound was performed using the Reed Muench Method for results obtained 48 hours after challenge.

[4] = system: IL-1 induced T-cell Proliferation; assay: Anti IL-1 Activity (Thymocyte Assay): suppression of IL-1 induced T-cell proliferation; format: cell-based, C3H/HeJ male mice; details: mouse thymocytes, 48 hours, read-out: Percent T-cell suppression; for inhibition at 1 µg/mL: 1 mcg/ml; for inhibition at 10 µg/mL: 10 mcg/ml
Method: Thymus from 3-4 week old C3H/HeJ male mice and were passed through a #100 mesh screen to make a single cell suspension. The cells were suspended in RPMI-1640 supplemented with 2×10^-5 M 2-mercaptoethanol, 3% fetal calf serum, and 1% Penicillin/Streptomycin. The cell suspension was placed in a tissue culture flask and incubated at 37° C. in 5% carbon dioxide in air for 1-2 hours. The thymocytes were decanted, leaving adherent cells behind, and the liquid was centrifuged at 1400 rpm for 10 minutes. After decanting the supernatant, the cells were resuspended and counted with a hemocytometer. The density was adjusted to […]. Fifty μ1 of the suspension were added to each well of a 96-well microtiter plate, followed by the addition of 25 μl of PHA and 25 μl IL-1 (1:25 dilution of a 10 mcg/ml stock solution) per well.
Each compound to be tested was dissolved in 30% DMSO/70% PBS to make a stock solution of 1 mg/ml. Fifteen μl of each compound were added to 300 μl of media in the serial dilution plate. Twenty-five μl of each drug were added to the test plate in quadruplicate wells across the plate. The plate was incubated at 37° C. in 5% carbon dioxide in air for 48 hours. The wells were pulsed with tritiated thymidine (5 μCi.well) for 4 hours before harvesting on a Skatron cell harvester. The filter discs were placed in mini-vials, scintillation fluid (Tol-Pop) was added, and the vials counted. The percent of counts for each vial compared with control samples wherein no compound was added (vehicles only) was determined for each compound and are reported as Table III below as the percent T-ce1 suppression.

[5] = system: inflammation created by injecting carrageenin into the hind paws of rats; assay: Carrageenin Assay; format: in vivo; details: Rattus norvegicus, ip, 50 mg/kg i.p., prior to carrageenin injection, read-out: Percent Inhibition (Antiinflammatory Activity in the Carrageenin Assay)
Method: The compounds were evaluated for antiinflammatory activity in the test method described by C. A. Winter, Proc. Soc. Exp. Biol. Med., 111, 544 (1962). In this test, inflammation is created by injecting carrageenin into the hind paws of rats. Test compounds are administered prior to injection to determine percent inhibition of the subsequent inflammation in comparison with control animals.

T1 sequence (Q15722 whole entry): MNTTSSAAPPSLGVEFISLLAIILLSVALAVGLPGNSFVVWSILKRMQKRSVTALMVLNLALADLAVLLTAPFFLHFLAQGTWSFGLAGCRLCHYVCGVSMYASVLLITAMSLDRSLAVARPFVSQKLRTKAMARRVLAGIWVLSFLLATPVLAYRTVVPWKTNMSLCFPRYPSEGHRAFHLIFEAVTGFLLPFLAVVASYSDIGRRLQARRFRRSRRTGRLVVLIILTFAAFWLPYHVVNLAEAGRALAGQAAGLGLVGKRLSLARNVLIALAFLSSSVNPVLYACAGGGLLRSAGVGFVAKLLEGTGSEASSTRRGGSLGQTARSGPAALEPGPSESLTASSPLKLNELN

Row | Compound | inhibition at 10 µM [1] [%] | inhibition at 1 µM [1] [%] | inhibition in vivo at 0.028 % ([2]; 0.028% in ethanol gel) [%] | ED50 [3] [mg/kg] | inhibition at 1 µg/mL [4] [%] | inhibition at 10 µg/mL [4] [%] | inhibition in vivo at 50 mg/kg [5] [%] | inhibition in vivo at 1 % ([2]; 1% in ethanol gel) [%]
1 | CCc1cc(C(C)=O)c(O)cc1OCCCCCCS(C)(=O)=O [Example 83, 2-Hydroxy-4-[6-(methylsulfonyl)hexyl-oxy]-5-ethylacetophenone] | 98 | 61 | 59 | > 50 | 29 | 43 | 26 | –
2 | CCc1cc(C(C)=O)c(O)cc1OCCCCc1nnnn1C [Example 122, 2-Hydroxy-4-[4-(1-methyl-lH-tetrazol-5-yl)butoxy]-5-ethylacetophenone] | 66 | 24 | – | 42 | 37 | 87 | 53 | 10
